Converted amounts (≈) assume the structure as drawn.
Tests used:
[1] = Toxicity in po dosed rat; format: organism-based; conditions: in vivo
L1210 = assay: Antiproliferative activity against mouse L1210 cells by MTT reduction assay; format: functional, cell-based
A549 = assay: Antiproliferative activity against human A549 cells by MTT reduction assay; format: functional, cell-based
HT-29 = assay: Antiproliferative activity against human HT-29 cells by MTT reduction assay; format: functional, cell-based

SMILES	LD50 [1] [mg/kg]	IC50 (L1210) [µg/mL]	IC50 (A549) [µg/mL]	IC50 (HT-29) [µg/mL]
C[C@H]1CCC/C=C/[C@@H]2C[C@H](O)C[C@H]2[C@H](O)/C=C/C(=O)O1 [BREFELDIN A]	275			
C[C@H]1CCC/C=C/[C@@H]2C[C@H](O[C@@H]3O[C@H](CO)[C@H](O)[C@H](O)[C@H]3O)C[C@H]2[C@H](O)/C=C/C(=O)O1 [7-O-BETA-D-GALACTOSYL-BREFELDIN A]		10 (≈ 22.6 µM)	1.2 (≈ 2.71 µM)	1.3 (≈ 2.94 µM)
